{
  "source": "patent US4221682A",
  "about": "“Tetrapeptides having analgesic activity” (American Home Products Corporation, priority 1979, dated 1980)",
  "key": {"[1]": {"system": "male rats", "test": "rat-tail flick test of D'Amour and Smith, intravenous administration", "format": "in vivo", "conditions": "for Positive Responses/Total Possible Response: all time points", "experimental": "The holders are situated so that a high intensity light beam will shine on the tip of the rats tail. The light beam intensity is adjusted so that normal rats respond by removing their tails from the light stimulus within from 3 to 8 seconds. The average of three time readings for removal of a rats tail from the light beam, taken 20 minutes apart serves as a pre-drug control. The rats are selected for use based upon control readings that agree within one second. The compounds of this invention are then administered intravenously and the test performed at 15, 30 and 60 minutes to determine the animals reaction time which is compared with the control average and tested for significance. The number of rats showing analgesia at each time period out of the total group for each dose administered is noted as a ratio and the number of positive responses observed is relative to the total number of challenges for each group of rats."}, "[2]": {"system": "rats", "conditions": "cited from earlier work; for analgesia: injection in the brain ventricle in rats, fully reversible by naloxone"}, "[3]": {"conditions": "cited from earlier work; for activity when administered peripherally: peripheral administration"}, "[4]": {"system": "mice", "conditions": "central administration (Baxter et al.); cited from earlier work"}, "[5]": {"conditions": "central administration (Pert et al.); cited from earlier work"}, "[6]": {"system": "guinea pig ileum", "conditions": "cited from earlier work"}, "[7]": {"system": "opiate receptor", "conditions": "brain homogenates; cited from earlier work"}, "[8]": {"system": "mouse vas deferens", "conditions": "cited from earlier work"}, "[9]": {"system": "rats", "conditions": "peripheral (i.v.), rats (Bajusz et al.); cited from earlier work"}},
  "note": "Read-outs that look alike come from different tables or passages of the source. Positions of bridges follow the written chain, without caps; N, C: chain ends. Non-standard residues stand in square brackets, D forms with d. Residues, ends and D or L forms follow the SMILES beside them. Chains are numbered I, II in the order given. NMeF = CN[C@@H](Cc1ccccc1)C(=O)O",
  "data": [
    {"compound": "CN(C(=O)CNC(=O)[C@@H](CSSC[C@@H](NC(=O)[C@@H](N)Cc1ccc(O)cc1)C(=O)NCC(=O)N(C)[C@@H](Cc1ccccc1)C(N)=O)NC(=O)[C@@H](N)Cc1ccc(O)cc1)[C@@H](Cc1ccccc1)C(N)=O", "note": "[Example 2, L-Tyrosyl-D-Cysteinyl-Glycyl-N-Methyl-L-Phenylalanyl Amide Disulfide Acetate] (I: H-Y[dC]G[NMeF]-NH2 / II: H-Y[dC]G[NMeF]-NH2; disulfide I:2-II:2)", "values": [
      {"measurement": "Respiration normal (number of rats)", "setting": "[1]; 1.0 mg/kg i.v.", "value": "5/5"},
      {"measurement": "dead (number of rats)", "setting": "[1]; 1.0 mg/kg i.v.", "value": "1/6"},
      {"measurement": "No. Analgesic/No. Tested", "setting": "[1]; 1.0 mg/kg i.v., 15 minutes", "value": "3/6"},
      {"measurement": "No. Analgesic/No. Tested", "setting": "[1]; 1.0 mg/kg i.v., 30 minutes", "value": "2/6"},
      {"measurement": "No. Analgesic/No. Tested", "setting": "[1]; 1.0 mg/kg i.v., 60 minutes", "value": "1/5"},
      {"measurement": "Positive Responses/Total Possible Response", "setting": "[1]; 1.0 mg/kg i.v.", "value": "6/17"},
      {"measurement": "Respiration very depressed (number of rats)", "setting": "[1]; 5.0 mg/kg i.v.", "value": "6/6"},
      {"measurement": "dead (number of rats)", "setting": "[1]; 5.0 mg/kg i.v.", "value": "0/6"},
      {"measurement": "No. Analgesic/No. Tested", "setting": "[1]; 5.0 mg/kg i.v., 15 minutes", "value": "6/6"},
      {"measurement": "No. Analgesic/No. Tested", "setting": "[1]; 5.0 mg/kg i.v., 30 minutes", "value": "5/6"},
      {"measurement": "No. Analgesic/No. Tested", "setting": "[1]; 5.0 mg/kg i.v., 60 minutes", "value": "5/6"},
      {"measurement": "Positive Responses/Total Possible Response", "setting": "[1]; 5.0 mg/kg i.v.", "value": "16/18"}
    ]},
    {"compound": "H-Tyr-D-Ala-Gly-Phe-D-Leu-OH", "values": [
      {"measurement": "antinociceptive and behavioral effects", "setting": "[2]; rats, central administration (Baxter et al.)", "value": "exhibit antinociceptive and behavioral effects"},
      {"measurement": "peripheral analgesic activity", "setting": "[3]; peripheral administration (Wei et al.; Romer et al.)", "value": "exhibit peripheral analgesic activity"},
      {"measurement": "antinociceptive and behavioral effects", "setting": "[4]", "value": "exhibit antinociceptive and behavioral effects"}
    ]},
    {"compound": "H-Tyr-D-Ala-Gly-Phe-D-Met-NH2", "values": [
      {"measurement": "analgesic activity", "setting": "[2]; rats, centrally administered (Fredrickson)", "value": "produced analgesic activity"}
    ]},
    {"compound": "H-Tyr-D-Ala-Gly-Phe-Met-NH2", "values": [
      {"measurement": "analgesia", "setting": "[5]", "value": "long lasting analgesic"}
    ]},
    {"compound": "H-Tyr-Gly-Gly-Phe-Leu-OH [leucine-enkephalin]", "values": [
      {"measurement": "block of electrically evoked contractions", "setting": "[6]", "value": "mimic the ability of morphine to block electrically evoked contractions"},
      {"measurement": "inhibition of stereospecific receptor binding of 3H-naloxone", "setting": "[7]", "value": "inhibit the stereospecific receptor binding"},
      {"measurement": "analgesia", "setting": "[2]", "value": "induce a profound analgesia"},
      {"measurement": "activity when administered peripherally", "setting": "[3]", "value": "inactive"},
      {"measurement": "block of electrically evoked contractions", "setting": "[8]", "value": "mimic the ability of morphine to block electrically evoked contractions"}
    ]},
    {"compound": "H-Tyr-Gly-Gly-Phe-Met-OH [methionine-enkephalin]", "values": [
      {"measurement": "block of electrically evoked contractions", "setting": "[6]", "value": "mimic the ability of morphine to block electrically evoked contractions"},
      {"measurement": "inhibition of stereospecific receptor binding of 3H-naloxone", "setting": "[7]", "value": "inhibit the stereospecific receptor binding"},
      {"measurement": "analgesia", "setting": "[2]", "value": "induce a profound analgesia"},
      {"measurement": "activity when administered peripherally", "setting": "[3]", "value": "inactive"},
      {"measurement": "block of electrically evoked contractions", "setting": "[8]", "value": "mimic the ability of morphine to block electrically evoked contractions"}
    ]},
    {"compound": "H-Y[dM]GFP-NH2", "values": [
      {"measurement": "analgesic activity", "setting": "[9]", "value": "peripheral (i.v.) analgesic activity"}
    ]}
  ]
}
